Experiments:
Coccomyxa actinabiotis [1] = format: cell-based; settings: after one day; 250 mg fresh mass of microalgae from BBM culture
Procedure: Another experiment was carried out by placing 250 mg of fresh mass of microalgae originating from cultures in BBM medium in the presence of […] of demineralized water which has a composition similar to that of the water from the spent fuel storage pools, namely pH 5.5, conductivity 1.2 μS/cm, containing 280 Bq/l of ^60Co, 530 Bq/l of ^58Co, 66 Bq/l of ^110mAg, 1460 Bq/l of ^124Sb, 1180 Bq/l of ^51Cr, 120 Bq/l of ^65Zn, […] and also tritium (260 000 Bq/l) and ^14C (10 000 Bq/l).

Coccomyxa actinabiotis [2] = experiment: Extraction of bound metals from the microalgae with 0.1 M EDTA pH 4.5; format: cell-based; settings: 0.1 M EDTA pH 4.5, 2 days of exposure
Procedure: Other experiments were carried out in the presence of a 0.1 M solution of EDTA with a pH of 4.5. Under these conditions, 35% of the ^51Cr contained in the algae, but only 1% of the ^60Co and less than 0.5% of ^108mAg and ^116mAg, are extracted after 2 days of exposure.

Coccomyxa actinabiotis [3] = experiment: Extraction of bound metals from the microalgae with water or HCl; format: cell-based
Procedure: Experiments in which the metals bound by the algae are solubilized were carried out by incubating these algae (70 mg of fresh matter) in 5 ml of demineralized water, or of demineralized water supplemented with HCl at various concentrations. In neutral medium, the metals are not extracted.
The cations most retained are ^60Co, ^108mAg and ^110mAg. They remain bound to the cell for low concentrations of HCl (pH 4.5 to 2.5). They begin to be released exponentially below a threshold pH of 2.5, Co being the most solidly bound since it is at most 35% extracted after 6 days of exposure at pH 0.5, whereas Ag is 90% extracted under the same conditions. At pH 1.5, 10% of Ag and 2% of Co are extracted after 6 days of exposure.

Coccomyxa actinabiotis [4] = experiment: Transported decontamination of storage pool water, 24 h contact; format: cell-based; settings: 50 ml water, 9×10^8 cells (140 mg fresh mass)
Procedure: Water originating from a spent nuclear element storage pool was brought into contact with Coccomyxae actinabiotis(50 ml of water in contact with 9×10^8 cells, i.e. 140 mg of algae by fresh mass, originating from culture and rinsed beforehand three times with Milli-Q water).
Table V below indicates the initial composition of the water, according to the total γ-activity measured and the γ-activity measured per radionuclide, and the percentage of γ-emitting radionuclides bound by the algae at 24 h.

Coccomyxa actinabiotis [5] = experiment: Growth in the presence of cobalt; format: cell-based
Description: However, the Coccomyxa actinabiotis microalga does grow in the presence of 10^−4 mol/l of cobalt.

Coccomyxa actinabiotis [6] = experiment: Maximum metal concentrations tolerated (one week exposure to Ag or Co); format: cell-based
Procedure: The limiting doses supported by Coccomyxa actinabiotis were investigated by exposure of the algae to silver or to cobalt for one week (20 mg of microalgae (fresh mass) in 100 ml of deionized water containing Ag or Co ions at various concentrations).

Deinococcus radiodurans = settings: John et al. 2000; cited from earlier work
Coccomyxa actinabiotis [7] = experiment: Exposure to heavy water: respiration and photosynthesis of the algae; format: cell-based; settings: 24 h and 48 h in 50%, 80% and 100% D2O in the dark; 24 h light in 50% D2O
organisms = settings: Ratte 1999; cited from earlier work
Coccomyxa actinabiotis [8] = experiment: Kinetics of binding and incorporation of silver by algae with or without mucilage; format: cell-based
Procedure: Two series of experiments were carried out: one with algae having a coating of mucilage, the thickness of which, evaluated by optical microscopy, is about 1 μm or more (“algae with mucilage”), the other with algae cultured in BBM medium and having little or no mucilage (“algae without mucilage”).
20 mg of algae (compacted fresh mass) and 90 ml of solution of Ag^+ at various concentrations are introduced into Erlenmeyer flasks. The 20 mg of algae are prepared as follows: sample taken from a round-bottomed culture flask, centrifugation for 20 minutes at 3000 rpm, washing twice in demineralized water (suspension, centrifugation). The culture medium is thus removed and there is no risk of it complexing the silver.
The algae without mucilage are brought into contact with solutions containing 0.11 mg/L and 5.5 mg/L of Ag^+.
The algae with mucilage are brought into contact with solutions containing 22 μg/L, 1.1 mg/L and 55 mg/L of Ag^+.
The Erlenmeyer flasks are placed on illuminated shakers and samples of 5 ml are taken for various exposure times in order to monitor the binding kinetics for each of the initial concentrations of silver. The samples are centrifuged for 10 minutes at 4500 rpm in order to separate the algae which have concentrated the metal. The metal content is then analyzed in the pellet (algae) and in the supernatant.

[51Cr] [^51Cr]
percentage of isotope fixed (Coccomyxa actinabiotis [1]): 48% | metal contained in the algae extracted (Coccomyxa actinabiotis [2]): 35% | metal extracted from algae (Coccomyxa actinabiotis [3]; pH 0.5, 6 days of exposure): ≤ 25%

[Mn] [^54Mn]
percentage of isotope fixed (Coccomyxa actinabiotis [1]): 90% | % binding by the algae (Coccomyxa actinabiotis [4]): 100%

[58Co] [^58Co]
percentage of isotope fixed (Coccomyxa actinabiotis [1]): 94%

[60Co] [^60Co]
percentage of isotope fixed (Coccomyxa actinabiotis [1]): 94% | % binding by the algae (Coccomyxa actinabiotis [4]): 72% | metal contained in the algae extracted (Coccomyxa actinabiotis [2]): 1%

[65Zn] [^65Zn]
percentage of isotope fixed (Coccomyxa actinabiotis [1]): 100%

[110Ag] [^110mAg]
percentage of isotope fixed (Coccomyxa actinabiotis [1]): 100% | % binding by the algae (Coccomyxa actinabiotis [4]): 100%

[124Sb] [^124Sb]
percentage of isotope fixed (Coccomyxa actinabiotis [1]): 30%

[137Cs] [^137Cs]
% binding by the algae (Coccomyxa actinabiotis [4]): 100%

[U] [^238U]
% binding by the algae (Coccomyxa actinabiotis [4]): 95%

[Co+2] [cobalt]
cobalt concentration in the presence of which the microalga grows (Coccomyxa actinabiotis [5]): 10^−4 mol/l | metal extracted from algae (Coccomyxa actinabiotis [3]; pH 0.5, 6 days of exposure): at most 35% | metal extracted from algae (Coccomyxa actinabiotis [3]; pH 1.5, 6 days of exposure): 2% | cobalt intolerance threshold (Co2+ concentration) (Coccomyxa actinabiotis [6]; with mucilage): > 800 mg/L | cobalt intolerance threshold (Co2+ concentration) (Coccomyxa actinabiotis [6]; without mucilage): > 50 mg/L | cobalt concentration inhibiting growth (Deinococcus radiodurans): 5 ppm

[2H]O[2H] [heavy water]
effect on respiration and photosynthesis of the algae (Coccomyxa actinabiotis [7]): no effect

[Ag] [silver]
concentration at which silver is generally toxic (organisms): 10^−7-10^−5 mol/l | silver bound at the plateau (Coccomyxa actinabiotis [8]; algae with mucilage, initial concentration 55 mg/l): 20% | silver bound at the plateau (Coccomyxa actinabiotis [8]; algae without mucilage, initial concentration 5.5 mg/l): 75% | metal extracted from algae (Coccomyxa actinabiotis [3]; pH 0.5, 6 days of exposure): 90% | metal extracted from algae (Coccomyxa actinabiotis [3]; pH 1.5, 6 days of exposure): 10% | extracellular silver concentration withstood (Coccomyxa actinabiotis [6]; Coccomyxae actinabiotis with mucilage): at least 50 mg/L | silver concentration at which algae do not survive (Coccomyxa actinabiotis [6]; Coccomyxae actinabiotis without mucilage): greater than 250 μg/L

Source: patent US8673620B2, “Radioresistant alga of the Coccomyxa genus” (priority 2010, dated 2014)
